According to patent EP4745137A1 (Gluetacs Therapeutics (Shanghai) Co., Ltd., priority 2023, dated 2025):

Columns and labels:
WEE1 = biological target: T1, WEE1 (Homo sapiens, UniProt P30291+Q96SW2); experiment: Western-blot assay of substrate protein degradation in hPBMCs, WEE1; type: cell-based; conditions: 24 hours of compound treatment, compounds tested at 50 nM and 500 nM (concentration of the table not stated)
T1 construct: endogenous in cells; host or cells: hPBMCs (Milecell Biotechnologies)

IKZF1 = biological target: T2, IKZF1 (Homo sapiens, UniProt Q13422+Q96SW2); experiment: Western-blot assay of substrate protein degradation in hPBMCs, IKZF1; type: cell-based; conditions: 24 hours of compound treatment, compounds tested at 50 nM and 500 nM (concentration of the table not stated)
T2 construct: endogenous in cells; host or cells: hPBMCs (Milecell Biotechnologies)

IKZF2 = biological target: T3, IKZF2 (Homo sapiens, UniProt Q96SW2+Q9UKS7); experiment: Western-blot assay of substrate protein degradation in hPBMCs, IKZF2; type: cell-based; conditions: 24 hours of compound treatment, compounds tested at 50 nM and 500 nM (concentration of the table not stated)
T3 construct: endogenous in cells; host or cells: hPBMCs (Milecell Biotechnologies)

IKZF3 = biological target: T4, IKZF3 (Homo sapiens, UniProt Q96SW2+Q9UKT9); experiment: Western-blot assay of substrate protein degradation in hPBMCs, IKZF3; type: cell-based; conditions: 24 hours of compound treatment, compounds tested at 50 nM and 500 nM (concentration of the table not stated)
T4 construct: endogenous in cells; host or cells: hPBMCs (Milecell Biotechnologies)

CK1α = biological target: T5, CK1α (Homo sapiens, UniProt P48729+Q96SW2); experiment: Western-blot assay of substrate protein degradation in hPBMCs, CK1α; type: cell-based; conditions: 24 hours of compound treatment, compounds tested at 50 nM and 500 nM (concentration of the table not stated)
T5 construct: endogenous in cells; host or cells: hPBMCs (Milecell Biotechnologies)

GSPT1 = biological target: T6, GSPT1 (Homo sapiens, UniProt P15170+Q96SW2); experiment: Western-blot assay of substrate protein degradation in hPBMCs, GSPT1; type: cell-based; conditions: 24 hours of compound treatment, compounds tested at 50 nM and 500 nM (concentration of the table not stated)
T6 construct: endogenous in cells; host or cells: hPBMCs (Milecell Biotechnologies)

[1] = biological target: T7, human Cereblon WT GST-tagged protein (Homo sapiens, UniProt Q96SW2); experiment: CRBN-binding affinity by HTRF (CEREBLON BINDING kit); conditions: HTRF inhibitory activity, CEREBLON BINDING kit; read-out: HTRF IC50
T7 construct: purchased CISBIO 64BDCRBNPEH
T7 sequence (Q96SW2 whole entry): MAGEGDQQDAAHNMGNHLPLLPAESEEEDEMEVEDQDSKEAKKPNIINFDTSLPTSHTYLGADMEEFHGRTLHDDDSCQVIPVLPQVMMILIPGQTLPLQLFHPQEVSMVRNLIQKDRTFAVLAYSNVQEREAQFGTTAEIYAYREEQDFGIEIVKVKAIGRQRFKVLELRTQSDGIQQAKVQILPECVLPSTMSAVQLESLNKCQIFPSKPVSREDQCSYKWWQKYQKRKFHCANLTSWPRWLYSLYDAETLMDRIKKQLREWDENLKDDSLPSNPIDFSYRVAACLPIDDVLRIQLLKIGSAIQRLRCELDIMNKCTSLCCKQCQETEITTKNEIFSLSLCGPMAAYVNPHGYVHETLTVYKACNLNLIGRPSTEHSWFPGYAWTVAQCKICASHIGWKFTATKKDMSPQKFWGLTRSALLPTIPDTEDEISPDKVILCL

T6 sequence (P15170 whole entry): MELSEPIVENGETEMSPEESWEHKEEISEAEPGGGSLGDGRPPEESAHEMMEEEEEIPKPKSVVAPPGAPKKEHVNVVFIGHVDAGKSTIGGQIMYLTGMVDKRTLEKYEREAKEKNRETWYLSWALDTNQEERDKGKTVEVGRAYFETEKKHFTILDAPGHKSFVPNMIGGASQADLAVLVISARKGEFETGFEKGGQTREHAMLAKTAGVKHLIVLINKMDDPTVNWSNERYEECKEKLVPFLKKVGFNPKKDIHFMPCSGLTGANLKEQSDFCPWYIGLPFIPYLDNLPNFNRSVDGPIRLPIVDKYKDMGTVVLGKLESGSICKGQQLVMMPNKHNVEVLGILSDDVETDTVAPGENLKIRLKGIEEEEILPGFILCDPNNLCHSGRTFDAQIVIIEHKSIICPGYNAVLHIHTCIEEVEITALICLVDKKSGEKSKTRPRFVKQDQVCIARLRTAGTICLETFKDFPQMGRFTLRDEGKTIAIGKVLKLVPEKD
T6 sequence (Q96SW2 whole entry): as the sequence (Q96SW2 whole entry) above
T6 sequence (Q16531 whole entry partner): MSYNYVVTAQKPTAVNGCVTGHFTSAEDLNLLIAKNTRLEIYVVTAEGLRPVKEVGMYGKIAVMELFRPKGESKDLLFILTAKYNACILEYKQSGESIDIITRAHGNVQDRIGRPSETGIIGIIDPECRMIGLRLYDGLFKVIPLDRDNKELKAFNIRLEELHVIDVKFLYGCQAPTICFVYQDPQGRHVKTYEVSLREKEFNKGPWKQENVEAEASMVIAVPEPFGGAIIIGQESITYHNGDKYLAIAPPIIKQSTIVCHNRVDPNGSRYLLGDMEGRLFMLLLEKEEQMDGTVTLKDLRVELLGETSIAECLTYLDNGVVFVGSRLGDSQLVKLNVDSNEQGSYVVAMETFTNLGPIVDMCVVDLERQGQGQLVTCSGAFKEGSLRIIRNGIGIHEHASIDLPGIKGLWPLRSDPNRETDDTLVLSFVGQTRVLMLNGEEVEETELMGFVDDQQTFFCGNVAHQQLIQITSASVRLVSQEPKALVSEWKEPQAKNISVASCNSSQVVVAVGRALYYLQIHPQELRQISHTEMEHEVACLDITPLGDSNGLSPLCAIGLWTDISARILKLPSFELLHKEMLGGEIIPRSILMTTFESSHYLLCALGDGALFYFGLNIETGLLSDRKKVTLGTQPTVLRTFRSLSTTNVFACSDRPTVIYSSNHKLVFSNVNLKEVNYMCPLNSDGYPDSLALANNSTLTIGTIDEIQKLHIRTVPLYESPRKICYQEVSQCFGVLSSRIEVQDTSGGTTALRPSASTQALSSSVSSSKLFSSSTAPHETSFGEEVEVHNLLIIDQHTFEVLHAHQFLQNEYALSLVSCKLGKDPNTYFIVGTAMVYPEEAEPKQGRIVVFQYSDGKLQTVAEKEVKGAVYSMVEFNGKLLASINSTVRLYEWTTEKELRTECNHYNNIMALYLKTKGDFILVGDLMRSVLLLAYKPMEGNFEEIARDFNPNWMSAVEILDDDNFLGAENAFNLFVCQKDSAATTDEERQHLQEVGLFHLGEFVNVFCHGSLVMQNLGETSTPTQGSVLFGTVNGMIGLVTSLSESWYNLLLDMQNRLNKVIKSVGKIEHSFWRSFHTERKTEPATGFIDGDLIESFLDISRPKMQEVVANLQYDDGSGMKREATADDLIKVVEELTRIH
T1 sequence (P30291 whole entry): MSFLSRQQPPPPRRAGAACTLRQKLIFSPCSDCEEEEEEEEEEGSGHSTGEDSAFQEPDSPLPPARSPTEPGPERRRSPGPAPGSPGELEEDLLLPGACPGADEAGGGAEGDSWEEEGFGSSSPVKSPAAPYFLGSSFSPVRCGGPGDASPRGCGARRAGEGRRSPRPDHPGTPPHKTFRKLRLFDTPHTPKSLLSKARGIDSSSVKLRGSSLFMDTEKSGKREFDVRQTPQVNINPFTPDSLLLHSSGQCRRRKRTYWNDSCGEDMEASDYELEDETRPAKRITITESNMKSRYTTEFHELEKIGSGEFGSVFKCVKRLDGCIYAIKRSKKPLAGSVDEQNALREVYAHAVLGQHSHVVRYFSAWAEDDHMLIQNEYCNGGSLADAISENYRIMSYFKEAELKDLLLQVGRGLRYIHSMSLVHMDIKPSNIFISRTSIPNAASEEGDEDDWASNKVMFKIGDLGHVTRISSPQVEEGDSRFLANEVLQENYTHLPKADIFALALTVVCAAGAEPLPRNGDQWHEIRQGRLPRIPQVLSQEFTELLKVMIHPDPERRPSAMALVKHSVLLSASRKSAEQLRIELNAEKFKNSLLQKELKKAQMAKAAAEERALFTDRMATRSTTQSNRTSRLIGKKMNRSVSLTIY
T1 sequence (Q96SW2 whole entry): as the sequence (Q96SW2 whole entry) above
T1 sequence (Q16531 whole entry partner): as the sequence (Q16531 whole entry partner) above
T4 sequence (Q9UKT9 whole entry): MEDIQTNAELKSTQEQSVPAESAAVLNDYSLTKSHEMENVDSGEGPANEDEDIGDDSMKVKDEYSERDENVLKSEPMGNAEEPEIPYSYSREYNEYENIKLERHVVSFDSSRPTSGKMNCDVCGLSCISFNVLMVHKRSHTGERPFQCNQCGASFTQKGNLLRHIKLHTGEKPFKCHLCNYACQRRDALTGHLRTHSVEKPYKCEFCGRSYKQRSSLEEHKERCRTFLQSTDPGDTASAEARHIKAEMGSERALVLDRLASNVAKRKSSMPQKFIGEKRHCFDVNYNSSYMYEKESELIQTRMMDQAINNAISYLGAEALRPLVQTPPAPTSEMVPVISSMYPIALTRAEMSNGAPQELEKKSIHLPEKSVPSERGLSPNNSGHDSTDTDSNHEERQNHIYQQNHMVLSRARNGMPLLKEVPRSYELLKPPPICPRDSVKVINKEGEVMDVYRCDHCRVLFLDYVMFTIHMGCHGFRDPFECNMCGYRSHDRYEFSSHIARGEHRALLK
T4 sequence (Q96SW2 whole entry): as the sequence (Q96SW2 whole entry) above
T4 sequence (Q16531 whole entry partner): as the sequence (Q16531 whole entry partner) above
T5 sequence (P48729 whole entry): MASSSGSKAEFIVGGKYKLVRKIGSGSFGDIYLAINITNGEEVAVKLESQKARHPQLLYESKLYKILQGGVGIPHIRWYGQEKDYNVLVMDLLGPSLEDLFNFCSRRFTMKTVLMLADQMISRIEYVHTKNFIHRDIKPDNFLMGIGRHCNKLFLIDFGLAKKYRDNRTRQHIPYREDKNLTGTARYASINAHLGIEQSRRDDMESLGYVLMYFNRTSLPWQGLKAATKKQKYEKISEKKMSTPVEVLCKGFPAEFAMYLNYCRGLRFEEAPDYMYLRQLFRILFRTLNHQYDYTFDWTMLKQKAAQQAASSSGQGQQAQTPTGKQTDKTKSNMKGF
T5 sequence (Q96SW2 whole entry): as the sequence (Q96SW2 whole entry) above
T5 sequence (Q16531 whole entry partner): as the sequence (Q16531 whole entry partner) above
T2 sequence (Q13422 whole entry): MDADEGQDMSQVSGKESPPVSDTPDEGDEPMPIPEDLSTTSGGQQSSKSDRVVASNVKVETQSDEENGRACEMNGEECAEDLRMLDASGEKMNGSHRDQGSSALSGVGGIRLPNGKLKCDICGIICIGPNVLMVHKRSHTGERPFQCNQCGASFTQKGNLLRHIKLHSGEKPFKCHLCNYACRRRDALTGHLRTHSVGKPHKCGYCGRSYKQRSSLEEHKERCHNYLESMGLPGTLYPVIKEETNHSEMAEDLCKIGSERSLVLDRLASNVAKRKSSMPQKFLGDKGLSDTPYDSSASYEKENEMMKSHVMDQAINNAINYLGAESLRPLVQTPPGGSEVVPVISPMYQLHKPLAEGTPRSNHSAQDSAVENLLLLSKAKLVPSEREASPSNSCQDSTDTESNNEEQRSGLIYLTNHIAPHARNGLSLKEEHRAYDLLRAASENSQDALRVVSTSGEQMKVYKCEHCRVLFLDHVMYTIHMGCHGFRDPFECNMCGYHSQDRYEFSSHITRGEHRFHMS
T2 sequence (Q96SW2 whole entry): as the sequence (Q96SW2 whole entry) above
T2 sequence (Q16531 whole entry partner): as the sequence (Q16531 whole entry partner) above

Row | SMILES | IC50 [1] [nM] | Weel substrate protein remaining % (WEE1) | IKZF 1 substrate protein remaining % (IKZF1) | IKZF2 substrate protein remaining % (IKZF2) | IKZF3 substrate protein remaining % (IKZF3) | CK1a substrate protein remaining % (CK1α) | GSPT1 substrate protein remaining % (GSPT1)
1 | O=C1CCC(N2Cc3cc(CN4CCN(c5nc(N6CCOCC6)c6sccc6n5)CC4)ccc3C2=O)C(=O)N1 (stereo not drawn) [GT-04906, 3-(5-((4-(4-morpholinothieno[3,2-d]pyrimidin-2-yl)piperazin-1-yl)methyl)-1-oxoisoindolin-2-yl)piperidine-2,6-dione] | < 500 | B (80%< substrate protein remaining %≤ 100%) | A (0% ≤ substrate protein remaining % ≤ 80%) | B (80%< substrate protein remaining %≤ 100%) | B (80%< substrate protein remaining %≤ 100%) | B (80%< substrate protein remaining %≤ 100%) | B (80%< substrate protein remaining %≤ 100%)
2 | O=C1CCC(N2Cc3cc(CN4CC=C(c5ncnc6scc(-c7ccccc7)c56)CC4)ccc3C2=O)C(=O)N1 (stereo not drawn) [GT-04908, 3-(1-oxo-5-((4-(5-phenylthieno[2,3-d]pyrimidin-4-yl)-3,6-dihydropyridin-1(2H)-yl)methyl)isoindolin-2-yl)piperidine-2,6-dione] | < 500 | A (0% ≤ substrate protein remaining % ≤ 80%) | A (0% ≤ substrate protein remaining % ≤ 80%) | A (0% ≤ substrate protein remaining % ≤ 80%) | A (0% ≤ substrate protein remaining % ≤ 80%) | B (80%< substrate protein remaining %≤ 100%) | A (0% ≤ substrate protein remaining % ≤ 80%)
3 | O=C1CCC(N2Cc3cc(CN4CCC(c5ncc6ccsc6n5)CC4)ccc3C2=O)C(=O)N1 (stereo not drawn) [GT-04933, 3-(1-oxo-5-((4-(thieno[2,3-d]pyrimidin-2-yl)piperidin-1-yl)methyl)isoindolin-2-yl)piperidine-2,6-dione] | 500 to 1000 | A (0% ≤ substrate protein remaining % ≤ 80%) | A (0% ≤ substrate protein remaining % ≤ 80%) | A (0% ≤ substrate protein remaining % ≤ 80%) | A (0% ≤ substrate protein remaining % ≤ 80%) | A (0% ≤ substrate protein remaining % ≤ 80%) | A (0% ≤ substrate protein remaining % ≤ 80%)
4 | CCc1cnc(C2CCN(Cc3ccc4c(c3)CN(C3CCC(=O)NC3=O)C4=O)CC2)nc1 (stereo not drawn) [GT-04936, 3-(5-((4-(5-ethylpyrimidin-2-yl)piperidin-1-yl)methyl)-1-oxoisoindolin-2-yl)piperidine-2,6-dione] | 1000 to 1500 | A (0% ≤ substrate protein remaining % ≤ 80%) | A (0% ≤ substrate protein remaining % ≤ 80%) | A (0% ≤ substrate protein remaining % ≤ 80%) | A (0% ≤ substrate protein remaining % ≤ 80%) | A (0% ≤ substrate protein remaining % ≤ 80%) | A (0% ≤ substrate protein remaining % ≤ 80%)
5 | O=C1CCC(N2Cc3cc(CN4CCC(c5ncnc6scc(-c7ccccc7)c56)CC4)ccc3C2=O)C(=O)N1 (stereo not drawn) [GT-04995, 3-(1-oxo-5-((4-(5-phenylthieno[2,3-d]pyrimidin-4-yl)piperidin-1-yl)methyl)isoindolin-2-yl)piperidine-2,6-dione] | < 500 | A (0% ≤ substrate protein remaining % ≤ 80%) | A (0% ≤ substrate protein remaining % ≤ 80%) | A (0% ≤ substrate protein remaining % ≤ 80%) | A (0% ≤ substrate protein remaining % ≤ 80%) | B (80%< substrate protein remaining %≤ 100%) | B (80%< substrate protein remaining %≤ 100%)
6 | Cc1sc2ncnc(C3CCN(Cc4ccc5c(c4)CN(C4CCC(=O)NC4=O)C5=O)CC3)c2c1C (stereo not drawn) [GT-05034, 3-(5-((4-(5,6-dimethylthieno[2,3-d]pyrimidin-4-yl)piperidin-1-yl)methyl)-1-oxoisoindolin-2-yl)piperidine-2,6-dione] | < 500 | B (80%< substrate protein remaining %≤ 100%) | A (0% ≤ substrate protein remaining % ≤ 80%) | A (0% ≤ substrate protein remaining % ≤ 80%) | A (0% ≤ substrate protein remaining % ≤ 80%) | A (0% ≤ substrate protein remaining % ≤ 80%) | A (0% ≤ substrate protein remaining % ≤ 80%)

Further lines, with some results ahead:

Row | IC50 [1] [nM] | SMILES | Weel substrate protein remaining % (WEE1) | IKZF 1 substrate protein remaining % (IKZF1) | IKZF2 substrate protein remaining % (IKZF2) | IKZF3 substrate protein remaining % (IKZF3) | CK1a substrate protein remaining % (CK1α) | GSPT1 substrate protein remaining % (GSPT1)
7 | < 500 | O=C1CCC(N2Cc3cc(CN4CCN(c5noc6ccncc56)CC4)ccc3C2=O)C(=O)N1 (stereo not drawn) [GT-04904, 3-(5-((4-(isoxazolo[4,5-c]pyridin-3-yl)piperazin-1-yl)methyl)-1-oxoisoindolin-2-yl)piperidine-2,6-dione] | B (80%< substrate protein remaining %≤ 100%) | A (0% ≤ substrate protein remaining % ≤ 80%) | B (80%< substrate protein remaining %≤ 100%) | B (80%< substrate protein remaining %≤ 100%) | B (80%< substrate protein remaining %≤ 100%) | B (80%< substrate protein remaining %≤ 100%)
8 | < 500 | O=C1CCC(N2Cc3cc(CN4CCN(c5ccnc(Br)c5F)CC4)ccc3C2=O)C(=O)N1 (stereo not drawn) [GT-04928, 3-(5-((4-(2-bromo-3-fluoropyridin-4-yl)piperazin-1-yl)methyl)-1-oxoisoindolin-2-yl)piperidine-2,6-dione] | B (80%< substrate protein remaining %≤ 100%) | B (80%< substrate protein remaining %≤ 100%) | B (80%< substrate protein remaining %≤ 100%) | B (80%< substrate protein remaining %≤ 100%) | B (80%< substrate protein remaining %≤ 100%) | A (0% ≤ substrate protein remaining % ≤ 80%)
9 | 500 to 1000 | O=C1CCC(N2Cc3cc(CN4CCN(c5ccnc(O)c5F)CC4)ccc3C2=O)C(=O)N1 (stereo not drawn) [GT-04929, 3-(5-((4-(3-fluoro-2-hydroxypyridin-4-yl)piperazin-1-yl)methyl)-1-oxoisoindolin-2-yl)piperidine-2,6-dione] | B (80%< substrate protein remaining %≤ 100%) | A (0% ≤ substrate protein remaining % ≤ 80%) | B (80%< substrate protein remaining %≤ 100%) | B (80%< substrate protein remaining %≤ 100%) | B (80%< substrate protein remaining %≤ 100%) | A (0% ≤ substrate protein remaining % ≤ 80%)
10 | < 500 | Cc1nc(C2CCN(Cc3ccc4c(c3)CN(C3CCC(=O)NC3=O)C4=O)CC2)c2c3c(sc2n1)CCCC3 (stereo not drawn) [GT-04993, 3-(5-((4-(2-methyl-5,6,7,8-tetrahydrobenzo[4,5]thieno[2,3-d]pyrimidin-4-yl)piperidin-1-yl)methyl)-1-oxoisoindolin-2-yl)piperidine-2,6-dione] | A (0% ≤ substrate protein remaining % ≤ 80%) | A (0% ≤ substrate protein remaining % ≤ 80%) | A (0% ≤ substrate protein remaining % ≤ 80%) | A (0% ≤ substrate protein remaining % ≤ 80%) | A (0% ≤ substrate protein remaining % ≤ 80%) | A (0% ≤ substrate protein remaining % ≤ 80%)
11 | < 500 | O=C1CCC(N2Cc3cc(CN4CCC(c5ncnc6sc7c(c56)CCC7)CC4)ccc3C2=O)C(=O)N1 (stereo not drawn) [GT-04994, 3-(5-((4-(6,7-dihydro-5H-cyclopenta[4,5]thieno[2,3-d]pyrimidin-4-yl)piperidin-1-yl)methyl)-1-oxoisoindolin-2-yl)piperidine-2,6-dione] | A (0% ≤ substrate protein remaining % ≤ 80%) | A (0% ≤ substrate protein remaining % ≤ 80%) | A (0% ≤ substrate protein remaining % ≤ 80%) | A (0% ≤ substrate protein remaining % ≤ 80%) | B (80%< substrate protein remaining %≤ 100%) | B (80%< substrate protein remaining %≤ 100%)
12 | < 500 | O=C1CCC(N2Cc3cc(CN4CCN(c5ncnc6sc7c(c56)CCC7)CC4)ccc3C2=O)C(=O)N1 (stereo not drawn) [GT-04996, 3-(5-((4-(6,7-dihydro-5H-cyclopenta[4,5]thieno[2,3-d]pyrimidin-4-yl)piperazin-1-yl)methyl)-1-oxoisoindolin-2-yl)piperidine-2,6-dione] | A (0% ≤ substrate protein remaining % ≤ 80%) | A (0% ≤ substrate protein remaining % ≤ 80%) | A (0% ≤ substrate protein remaining % ≤ 80%) | A (0% ≤ substrate protein remaining % ≤ 80%) | A (0% ≤ substrate protein remaining % ≤ 80%) | A (0% ≤ substrate protein remaining % ≤ 80%)
